Reference: patent publication US20230265098A1, “ALKYNE QUINAZOLINE DERIVATIVES AS INHIBITORS OF ERBB2” (EnLiven Therapeutics, Inc., priority 2020, published 2023)

What was measured:
[1] = biological target: T1, Ba/F3 ERBB2 A775_G776insYVMA (Homo sapiens, UniProt P04626, DUP772-775, cells depend on it); experiment: Cell viability assay (CellTiter Glo); format: cell-based, mouse; conditions: 72 hours; 3000 cells per well, 96-well plates (Tables B3-B4); read-out: Cell viability IC50, nM, Ba/F3 ERBB2 A775_G776insYVMA
T1 construct: Ba/F3 cell lines were engineered to express human ERBB2 or EGFR kinases, rendering the cells IL-3 independent
T1 sequence (P04626 with tags, fused parts or gaps DUP772-775): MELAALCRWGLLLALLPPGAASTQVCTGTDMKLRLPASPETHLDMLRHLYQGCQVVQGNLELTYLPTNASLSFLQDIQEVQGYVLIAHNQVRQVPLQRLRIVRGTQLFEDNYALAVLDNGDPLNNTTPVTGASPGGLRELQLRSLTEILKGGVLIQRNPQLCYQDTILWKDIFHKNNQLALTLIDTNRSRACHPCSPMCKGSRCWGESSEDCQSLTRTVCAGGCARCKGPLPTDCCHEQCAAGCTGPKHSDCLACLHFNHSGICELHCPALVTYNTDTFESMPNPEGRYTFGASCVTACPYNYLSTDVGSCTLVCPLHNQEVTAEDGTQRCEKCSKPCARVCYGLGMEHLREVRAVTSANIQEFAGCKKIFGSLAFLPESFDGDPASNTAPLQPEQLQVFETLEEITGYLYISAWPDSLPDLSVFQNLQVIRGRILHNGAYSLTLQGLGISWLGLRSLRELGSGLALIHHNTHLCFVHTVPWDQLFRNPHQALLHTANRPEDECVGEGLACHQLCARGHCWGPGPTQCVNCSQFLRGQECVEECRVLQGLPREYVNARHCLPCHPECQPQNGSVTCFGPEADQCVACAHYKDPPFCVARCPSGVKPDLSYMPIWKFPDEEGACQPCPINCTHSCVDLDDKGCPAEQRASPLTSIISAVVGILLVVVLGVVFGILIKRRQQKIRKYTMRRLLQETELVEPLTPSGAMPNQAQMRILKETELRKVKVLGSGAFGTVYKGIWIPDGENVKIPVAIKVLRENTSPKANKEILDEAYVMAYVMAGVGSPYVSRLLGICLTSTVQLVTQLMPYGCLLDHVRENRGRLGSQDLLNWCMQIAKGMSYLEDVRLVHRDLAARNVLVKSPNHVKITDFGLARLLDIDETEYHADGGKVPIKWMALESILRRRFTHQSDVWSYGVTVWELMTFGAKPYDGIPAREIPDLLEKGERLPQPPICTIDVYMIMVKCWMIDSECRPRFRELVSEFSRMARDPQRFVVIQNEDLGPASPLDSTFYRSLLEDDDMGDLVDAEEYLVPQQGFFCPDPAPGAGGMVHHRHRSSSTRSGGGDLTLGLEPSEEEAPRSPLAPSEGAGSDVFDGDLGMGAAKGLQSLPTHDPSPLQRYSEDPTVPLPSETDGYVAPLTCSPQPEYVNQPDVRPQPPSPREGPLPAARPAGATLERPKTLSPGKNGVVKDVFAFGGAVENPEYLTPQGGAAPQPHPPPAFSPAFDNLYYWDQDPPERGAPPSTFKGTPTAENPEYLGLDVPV
Outline: (§1)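 Murine Ba/F3 cells made IL-3-independent by retroviral human EGFR or ERBB2 were seeded at 3000 or 300 cells per well and exposed to serially diluted compound (DMSO ≤0.1%) for 72 hours at 37° C, 5% CO2. CellTiter Glo luminescence was normalised to DMSO and media-only controls and fitted to a sigmoidal dose-response.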

Ba/F3 ERBB2 wt = biological target: T2, Ba/F3 ERBB2 wt (Homo sapiens, UniProt P04626); experiment: Cell viability assay (CellTiter Glo); format: cell-based, mouse; conditions: 72 hours; 3000 cells per well, 96-well plates; read-out: Cell viability IC50, nM, Ba/F3 ERBB2 wt
T2 construct: Ba/F3 cell lines were engineered to express human ERBB2 or EGFR kinases, rendering the cells IL-3 independent
T2 sequence (P04626 whole entry, change not shown): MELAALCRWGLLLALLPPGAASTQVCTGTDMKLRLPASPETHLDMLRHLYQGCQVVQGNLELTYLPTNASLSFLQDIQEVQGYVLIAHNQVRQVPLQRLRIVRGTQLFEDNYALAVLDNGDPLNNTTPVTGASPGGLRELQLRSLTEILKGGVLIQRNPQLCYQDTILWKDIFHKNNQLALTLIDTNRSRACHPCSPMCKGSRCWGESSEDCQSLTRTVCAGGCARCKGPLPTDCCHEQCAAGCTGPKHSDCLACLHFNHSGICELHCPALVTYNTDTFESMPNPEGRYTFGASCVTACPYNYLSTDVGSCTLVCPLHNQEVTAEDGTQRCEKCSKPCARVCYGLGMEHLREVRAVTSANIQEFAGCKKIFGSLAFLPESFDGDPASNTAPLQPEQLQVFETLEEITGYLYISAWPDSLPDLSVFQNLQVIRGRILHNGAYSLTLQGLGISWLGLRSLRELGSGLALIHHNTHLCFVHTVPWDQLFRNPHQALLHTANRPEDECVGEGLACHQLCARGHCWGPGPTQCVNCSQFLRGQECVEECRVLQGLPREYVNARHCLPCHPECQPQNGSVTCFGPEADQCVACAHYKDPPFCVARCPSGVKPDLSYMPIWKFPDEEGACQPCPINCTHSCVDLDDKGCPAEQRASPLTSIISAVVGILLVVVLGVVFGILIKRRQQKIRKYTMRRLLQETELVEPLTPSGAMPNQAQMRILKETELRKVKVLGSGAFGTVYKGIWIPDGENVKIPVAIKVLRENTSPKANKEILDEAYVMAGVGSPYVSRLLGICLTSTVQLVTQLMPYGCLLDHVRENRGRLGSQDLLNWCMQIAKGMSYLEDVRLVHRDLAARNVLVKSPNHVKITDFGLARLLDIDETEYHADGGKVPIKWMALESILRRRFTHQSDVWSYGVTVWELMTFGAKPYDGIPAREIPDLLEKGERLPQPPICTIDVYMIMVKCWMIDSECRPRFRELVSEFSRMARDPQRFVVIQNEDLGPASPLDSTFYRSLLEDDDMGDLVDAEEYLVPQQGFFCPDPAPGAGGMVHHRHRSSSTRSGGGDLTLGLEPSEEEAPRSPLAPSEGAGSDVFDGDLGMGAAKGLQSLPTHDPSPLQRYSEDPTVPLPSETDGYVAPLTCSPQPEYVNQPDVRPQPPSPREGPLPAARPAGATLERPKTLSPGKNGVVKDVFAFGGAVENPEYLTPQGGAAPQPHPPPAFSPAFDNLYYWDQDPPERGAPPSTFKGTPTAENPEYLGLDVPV
Outline: as §1

Ba/F3 ERBB2-G776VC = biological target: T3, Ba/F3 ERBB2-G776VC (Homo sapiens, UniProt P04626, DELINS776-776VC, cells depend on it); experiment: Cell viability assay (CellTiter Glo); format: cell-based, mouse; conditions: 72 hours; 3000 cells per well, 96-well plates; read-out: Cell viability IC50, nM, Ba/F3 ERBB2-G776VC
T3 construct: Ba/F3 cell lines were engineered to express human ERBB2 or EGFR kinases, rendering the cells IL-3 independent
Outline: as §1

Ba/F3 ERBB2-L755S = biological target: T4, Ba/F3 ERBB2-L755S (Homo sapiens, UniProt P04626, L755S, cells depend on it); experiment: Cell viability assay (CellTiter Glo); format: cell-based, mouse; conditions: 72 hours; 3000 cells per well, 96-well plates; read-out: Cell viability IC50, nM, Ba/F3 ERBB2-L755S
T4 construct: Ba/F3 cell lines were engineered to express human ERBB2 or EGFR kinases, rendering the cells IL-3 independent
Outline: as §1

Ba/F3 ERBB2-L869R = biological target: T5, Ba/F3 ERBB2-L869R (Homo sapiens, UniProt P04626, L869R, cells depend on it); experiment: Cell viability assay (CellTiter Glo); format: cell-based, mouse; conditions: 72 hours; 3000 cells per well, 96-well plates; read-out: Cell viability IC50, nM, Ba/F3 ERBB2-L869R
T5 construct: Ba/F3 cell lines were engineered to express human ERBB2 or EGFR kinases, rendering the cells IL-3 independent
Outline: as §1

Ba/F3 ERBB2-T798M = biological target: T6, Ba/F3 ERBB2-T798M (Homo sapiens, UniProt P04626, T798M, cells depend on it); experiment: Cell viability assay (CellTiter Glo); format: cell-based, mouse; conditions: 72 hours; 3000 cells per well, 96-well plates; read-out: Cell viability IC50, nM, Ba/F3 ERBB2-T798M
T6 construct: Ba/F3 cell lines were engineered to express human ERBB2 or EGFR kinases, rendering the cells IL-3 independent
Outline: as §1

Ba/F3 ERBB2-V777L = biological target: T7, Ba/F3 ERBB2-V777L (Homo sapiens, UniProt P04626, V777L, cells depend on it); experiment: Cell viability assay (CellTiter Glo); format: cell-based, mouse; conditions: 72 hours; 3000 cells per well, 96-well plates; read-out: Cell viability IC50, nM, Ba/F3 ERBB2-V777L
T7 construct: Ba/F3 cell lines were engineered to express human ERBB2 or EGFR kinases, rendering the cells IL-3 independent
T7 sequence (P04626 whole entry V777L): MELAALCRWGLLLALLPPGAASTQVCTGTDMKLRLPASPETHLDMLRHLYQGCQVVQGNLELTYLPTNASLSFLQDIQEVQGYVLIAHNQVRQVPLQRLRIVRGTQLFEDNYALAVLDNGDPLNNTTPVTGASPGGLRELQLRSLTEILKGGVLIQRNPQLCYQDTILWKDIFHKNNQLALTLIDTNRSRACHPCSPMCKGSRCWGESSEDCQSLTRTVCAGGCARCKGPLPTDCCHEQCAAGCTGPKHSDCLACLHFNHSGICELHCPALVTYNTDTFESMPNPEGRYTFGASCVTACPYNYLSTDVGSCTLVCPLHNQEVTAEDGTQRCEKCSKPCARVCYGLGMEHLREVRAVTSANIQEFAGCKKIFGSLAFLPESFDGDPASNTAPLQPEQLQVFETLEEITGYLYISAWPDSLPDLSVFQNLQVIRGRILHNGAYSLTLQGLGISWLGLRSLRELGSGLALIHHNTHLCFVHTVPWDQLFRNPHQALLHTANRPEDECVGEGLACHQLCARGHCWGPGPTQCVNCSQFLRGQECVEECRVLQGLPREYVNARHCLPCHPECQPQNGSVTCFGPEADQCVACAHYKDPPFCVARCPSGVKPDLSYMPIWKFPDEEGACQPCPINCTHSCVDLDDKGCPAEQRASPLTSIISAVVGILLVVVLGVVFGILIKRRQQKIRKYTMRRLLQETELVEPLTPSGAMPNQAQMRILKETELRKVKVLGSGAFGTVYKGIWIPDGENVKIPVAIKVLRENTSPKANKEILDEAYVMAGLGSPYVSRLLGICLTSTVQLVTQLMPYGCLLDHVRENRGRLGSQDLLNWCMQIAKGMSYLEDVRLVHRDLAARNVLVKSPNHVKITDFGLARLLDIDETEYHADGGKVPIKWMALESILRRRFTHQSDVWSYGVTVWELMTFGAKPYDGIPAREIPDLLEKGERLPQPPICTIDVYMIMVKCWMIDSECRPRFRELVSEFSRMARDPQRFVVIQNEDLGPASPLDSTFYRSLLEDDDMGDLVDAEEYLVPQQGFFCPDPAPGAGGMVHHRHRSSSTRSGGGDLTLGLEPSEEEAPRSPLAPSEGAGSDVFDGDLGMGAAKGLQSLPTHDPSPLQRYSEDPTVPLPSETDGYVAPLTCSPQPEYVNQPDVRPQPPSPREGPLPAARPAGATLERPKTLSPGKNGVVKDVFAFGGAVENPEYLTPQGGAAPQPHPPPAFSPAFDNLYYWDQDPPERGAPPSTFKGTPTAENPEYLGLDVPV
Outline: as §1

[2] = biological target: T8, Ba/F3 ERBB2-V777_G778insGC (Homo sapiens, UniProt P04626, INS778CG, cells depend on it); experiment: Cell viability assay (CellTiter Glo); format: cell-based, mouse; conditions: 72 hours; 3000 cells per well, 96-well plates; read-out: Cell viability IC50, nM, Ba/F3 ERBB2-V777_G778insGC
T8 construct: Ba/F3 cell lines were engineered to express human ERBB2 or EGFR kinases, rendering the cells IL-3 independent
T8 sequence (P04626 with tags, fused parts or gaps INS778CG): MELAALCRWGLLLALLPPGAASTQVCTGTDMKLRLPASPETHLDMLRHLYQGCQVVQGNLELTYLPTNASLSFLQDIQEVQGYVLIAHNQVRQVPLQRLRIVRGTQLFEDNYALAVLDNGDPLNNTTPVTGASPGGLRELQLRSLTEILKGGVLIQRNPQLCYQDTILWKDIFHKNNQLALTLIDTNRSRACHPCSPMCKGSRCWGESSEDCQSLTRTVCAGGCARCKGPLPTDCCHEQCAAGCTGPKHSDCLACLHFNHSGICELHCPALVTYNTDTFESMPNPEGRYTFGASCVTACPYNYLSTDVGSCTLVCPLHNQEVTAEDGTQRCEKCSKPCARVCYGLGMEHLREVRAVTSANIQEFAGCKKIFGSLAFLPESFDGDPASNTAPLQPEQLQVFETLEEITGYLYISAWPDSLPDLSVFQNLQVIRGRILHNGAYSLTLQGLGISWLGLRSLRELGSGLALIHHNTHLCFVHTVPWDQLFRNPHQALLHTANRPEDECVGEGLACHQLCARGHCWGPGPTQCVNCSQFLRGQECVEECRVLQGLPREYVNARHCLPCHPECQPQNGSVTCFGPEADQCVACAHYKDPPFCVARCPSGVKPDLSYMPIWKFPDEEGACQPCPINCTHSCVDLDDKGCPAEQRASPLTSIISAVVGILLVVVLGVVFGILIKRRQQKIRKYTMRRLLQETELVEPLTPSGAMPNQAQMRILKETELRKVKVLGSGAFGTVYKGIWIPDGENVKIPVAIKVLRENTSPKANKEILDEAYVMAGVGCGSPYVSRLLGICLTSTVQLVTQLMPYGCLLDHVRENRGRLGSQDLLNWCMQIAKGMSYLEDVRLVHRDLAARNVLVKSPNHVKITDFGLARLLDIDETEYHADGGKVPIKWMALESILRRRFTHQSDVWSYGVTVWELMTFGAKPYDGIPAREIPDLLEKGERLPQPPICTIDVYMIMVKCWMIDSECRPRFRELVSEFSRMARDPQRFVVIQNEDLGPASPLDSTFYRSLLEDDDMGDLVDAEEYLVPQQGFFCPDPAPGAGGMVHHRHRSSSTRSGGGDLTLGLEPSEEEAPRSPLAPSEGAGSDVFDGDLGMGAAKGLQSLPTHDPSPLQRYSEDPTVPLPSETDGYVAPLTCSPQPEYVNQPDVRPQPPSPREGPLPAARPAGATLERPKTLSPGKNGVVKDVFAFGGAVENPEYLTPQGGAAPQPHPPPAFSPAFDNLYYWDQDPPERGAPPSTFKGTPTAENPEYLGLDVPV
Outline: as §1

[3] = biological target: T9, phosphorylated ERBB2 (pERBB2) (Homo sapiens, UniProt P04626); experiment: Detection of phosphorylated ERBB2 (pERBB2) by ELISA in BT-474 cells; format: cell-based; conditions: four hours incubation with compound, OD 450 nm
T9 construct: endogenous in cells; host or cells: BT-474
Outline: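 BT-474 cells were treated for 4 h at 37 °C with four-fold compound dilutions from 10 μM to 0.01 nM final, then lysed. Phospho-ERBB2 in the lysates was measured by ELISA with TMB read-out at 450 nm. Relative activity was normalised between cell-free wells and 0.1% DMSO-treated cells.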

| SMILES | GI50 [1] [nM] | GI50 (Ba/F3 ERBB2 wt) [nM] | GI50 (Ba/F3 ERBB2-G776VC) [nM] | GI50 (Ba/F3 ERBB2-L755S) [nM] | GI50 (Ba/F3 ERBB2-L869R) [nM] | GI50 (Ba/F3 ERBB2-T798M) [nM] | GI50 (Ba/F3 ERBB2-V777L) [nM] | GI50 [2] [nM] | IC50 [3] [nM] |
| --- | --- | --- | --- | --- | --- | --- | --- | --- | --- |
| CC#CC(=O)Nc1ccc2ncnc(Nc3ccc(Oc4ccn5ncnc5c4)c(C)c3)c2c1 [Compound 1, N-[4-[(3-methyl-4-[[1,2,4]triazolo[1,5-a]pyridin-7-yloxy]phenyl)amino]quinazolin-6-yl]but-2-ynamide] | 4.4 | 1.5 | 2.6 | ~1 | < 1 | 15 | < 1 | < 1 | 10.3 |
| CC#CC(=O)Nc1cc2c(Nc3ccc(Oc4ccn5ncnc5c4)c(C)c3)ncnc2cc1OCCN(C)C [Compound 150, N-[7-[2-(dimethylamino)ethoxy]-4-[(3-methyl-4-[[1,2,4]triazolo[1,5-a]pyridin-7-yloxy]phenyl)amino]quinazolin-6-yl]but-2-ynamide] | 8.42 | 2.12 | 13.6 | 11.4 | 4.31 | 56.9 | 1.73 | 3.01 | 7.05 |
| Cc1cc(Nc2ncnc3ccc(NC4=NC(C)(C)CO4)cc23)ccc1Oc1ccn2ncnc2c1 [Tucatinib, tucatinib, reference compound] | 356 | 26.5 | 193 | 228 | 63.5 | 1370 | 11 | 12.5 | 23.1 |
